US20060276468A1, “Wood preservative formulations comprising Imazalil” (priority 2005, published 2006)
Entries after “also recorded” stand apart in the source; their conditions may differ.

Test system: decay organisms
Experiment: soil contact veneer exposure test: dip-treated Scots pine sapwood veneers half buried in damp compost, pulled by hand weekly until failure
Conditions: for average time for failure to occur (half life): biocide alone: 0.6% dichlorophen, 0.2% triclosan, 0.8% fenarimol, 0.8% PHMB, 0.4% imazalil sulfate, 6 veneers; for estimated expected half life for 1% fungicide plus 1% Imazalil sulfate / Half life for 1% fungicide plus 1% Imazalil sulfate / Half life for fungicide at 2% active ingredient (ai): Example 3; for synergy of the combination with imazalil sulfate: actual versus expected average time to failure; for half life, Low level with 0.8% Imazalil: 0.8% fungicide plus 0.8% imazalil; for half life, Low level with 0.8% Imazalil sulfate: 0.8% fungicide plus 0.8% imazalil sulfate, IMS; for average time for failure to occur, quat with Imazalil sulfate: 0.18% active quat plus 0.30% imazalil sulfate (Table 3; text b187 says 0.2%); for average time for failure to occur, Quat Only: 0.36% active quat in deionised water
Excerpt: The present invention also provides a simple exposure test for evaluating the wood preserving abilities of candidate ingredients or compositions. This exposure test is based on the premise that small dimension timber test specimens tend to fail more quickly than larger ones in soil contact situations.
It is preferable that the thickness of the veneers be greater than 0.1 mm, as veneers of lesser thickness can often be pulled apart by hand without undergoing exposure to decay organisms. Veneers which are thicker than 0.4 may take an excessive amount of time to fail the exposure test. In one embodiment, the thickness of the veneers is about 0.2 mm and the wood is the sapwood of the Scots pine (Pinus sylvestris). Other woods and thicknesses can be used. […] An example of convenient width and length dimensions are 15×50 mm. However, width and length are not critical provided they are kept consistent within a test, although very large or small length or width dimensions may be difficult to handle.
Accordingly, the test of the present invention comprises testing the integrity of a veneer after exposure to a decay-inducing environment. In one embodiment, this environment is damp compost in which decay organisms are present and water is present at just above the water holding capacity of the compost. If desired, other media can be used, and the test can be conducted at water contents which are below, at, or above the water-holding capacity of the media.
In general, the integrity of the veneer is inversely related to the length of exposure to the decay promoting environment. The integrity of the veneer can be tested by applying a force to the veneer and noting whether or not the veneer breaks. Thus, if wood preservative agents are applied to the veneers, these veneers would be expected to withstand longer exposure to the environment without breaking compared to control veneers without breaking.
The force applied to the veneers is preferably a force which pulls the two ends in opposite directions. The force can be applied by the use of an instrument or manually. If there is significant decay the veneer will break, generally near the junction between the portion submerged in the decay accelerating medium and the portion exposed to air. If the force is applied manually, it is preferable that the same individual conduct the test at the various exposure time points.
The veneers were cut such that both late wood and early wood were present in each veneer. The following biocides were tested: imazalil sulfate, dichlorophen, fenarimol, triclosan, and PHMB. To allow the mixing together of the five selected biocides in any combination the biocides were formulated such that they could be mixed together (all the percentages are mass/mass):
Test solutions were prepared and sets of veneers were dip treated such that there were 6 replicate veneers for each treatment under investigation. Additionally six veneers were dip treated in deionised water to act as water controls. […] Plastic containers (approximately 350×220 mm by at least 60 mm high) were part filled with John Innes Number 2 potting compost at a little above its water holding capacity. The veneers for this particular test were placed in six rows within a container such that approximately half the veneer was below the compost and half above. The veneers were placed in the compost such than those given a particular treatment were distributed throughout the container and were not grouped together. The containers, compost and veneers were weighed then incubated at about 30° C. and near 100% relative humidity in an incubator. Each week during the test the assembly was reweighed and deionised water added to bring it back to its original mass. After 3 weeks each veneer was examined in turn. It was held between the fore finger and thumb at each end and pulled to see if it could be broken. If it could be pulled apart a failure was recorded.

[1] = Example 14, 0.6% dichlorophen or 0.4% imazalil sulfate alone
[2] = Example 15, 2.0% alone, solutions in IMS (alcohol)
[3] = Example 16, 0.8% alone, solutions in IMS (alcohol)
[4] = Example 16, 1.6% alone, solutions in IMS (alcohol)
[5] = Example 5, additive expectation
[6] = Example 5, solutions in acetone
[7] = Example 8, solutions in IMS (alcohol)
[8] = Example 10, additive expectation
[9] = Example 10, solutions in IMS (alcohol)
[10] = Example 7, solutions in acetone
[11] = Example 9, 1.4% BBIT or 0.4% imazalil sulfate alone, formulations which can be mixed together
[12] = unnumbered table, solutions in IMS

## Oc1ccc(Cl)cc1Cc1cc(Cl)ccc1O [Dichlorophen, 2,2′-methylenebis[4-chlorophenol]]
Example 1
  average time for failure to occur (half life): 9.50 weeks
Additive expectation
  estimated expected half life for 1% fungicide plus 1% Imazalil sulfate: 12.92 weeks
Solutions in IMS (alcohol)
  Half life for 1% fungicide plus 1% Imazalil sulfate: 15.33 weeks
  Half life for fungicide at 2% active ingredient (ai): 19.83 weeks
Example 14, 0.3% dichlorophen plus 0.2% imazalil sulfate
  half life, With Imazalil sulfate: 11.2 weeks
[1]
  half life, No addition: 9.5 weeks
Example 14, additive expectation
  expected half life, With Imazalil sulfate: {7.4 weeks}
Example 15, 1.0% dichlorophen plus 1.0% imazalil sulfate, IMS (alcohol)
  half life, With Imazalil sulfate: 19.67 weeks
[2]
  half life, No addition: 17.00 weeks
Example 15, additive expectation
  expected half life, With Imazalil sulfate: {12.42 weeks}
[3]
  Calculated half life: 11.33 weeks
Example 16, 0.8% dichlorophen plus 0.8% imazalil sulfate, IMS (alcohol)
  Calculated half life: 13.00 weeks
Example 16, 0.8% dichlorophen plus 0.8% imazalil sulfate, additive expectation
  expected half life: {11.25 weeks}
[4]
  Calculated half life: 14.50 weeks
  synergy of the combination with imazalil sulfate: positive synergy; also recorded: exceeded the expected value

## CCCCCCCCn1sc(Cl)c(Cl)c1=O [RH 287, 4,5-dichloro-2-n-octyl-3(2H)-isothiazolone]
[5]
  estimated expected half life for 1% fungicide plus 1% Imazalil: {15.09 weeks}
[6]
  Half life for 1% fungicide plus 1% Imazalil: 19.33 weeks
  Half life for fungicide at 2% ai: 22.50 weeks

## CCCCCCCCCCCCN(CCCN)CCCN [Triameen Y 12D-30, N,N-bis(3-aminopropyl)dodeclamine]
Example 8, additive expectation
  estimated expected half life, Low level (0.8%) plus 0.8% Imazalil: {5.75 weeks}
[7]
  half life, High level (1.6%): 5.00 weeks
  half life, Low level (0.8%): 4.33 weeks
  half life, Low level (0.8%) plus 0.8% Imazalil: 6.00 weeks

## CCCC1COC(Cn2cncn2)(c2ccc(Cl)cc2Cl)O1 (centres unmarked) [Propiconazole, 1-[[2-(2,4-dichlorophenyl)-4-propyl-1,3-dioxolan-2-yl]=methyl]-1H-1,2,4-triazole]
[5]
  estimated expected half life for 1% fungicide plus 1% Imazalil: {6.59 weeks}
[6]
  Half life for 1% fungicide plus 1% Imazalil: 7.33 weeks
  Half life for fungicide at 2% ai: 5.50 weeks
Example 10, IMS (alcohol)
  half life, Low level with 0.8% Imazalil: 6.17 weeks
[8]
  estimated expected half life, Low level with 0.8% Imazalil: (5.84 weeks)
[9]
  half life, High level (1.6%): 5.50 weeks
  half life, Low level (0.8%): 5.33 weeks

## N,N-didecyl-N-methyl-poly(oxethyl)ammonium propionate [Bardap 26]
  half life, Low level with 0.8% Imazalil sulfate: 4.83 weeks
  synergy of the combination with imazalil sulfate: approximates that predicted in the case of no synergy
Example 2
  average time for failure to occur, quat with Imazalil sulfate: 5.33 weeks
  average time for failure to occur, Quat Only: 5.00 weeks
Example 2, additive expectation
  estimated expected average time for failure, quat with Imazalil sulfate: 5.34 weeks
Additive expectation
  expected half life, Low level with 0.8% Imazalil sulfate: {5.50 weeks}
Solutions in IMS
  half life, High level (1.6%): 5.17 weeks
  half life, Low level (0.8%): 4.67 weeks

## COC(=O)N(OC)c1ccccc1COc1ccn(-c2ccc(Cl)cc2)n1 [Pyraclostrobin, methyl N-{2-[1-(4-chlorophenyl)-1H-pyrazol-3-yloxymethyl]phenyl}(N-methoxy)carbamate]
Additive expectation
  estimated expected half life for 1% fungicide plus 1% Imazalil sulfate: 6.09 weeks
Solutions in IMS (alcohol)
  Half life for 1% fungicide plus 1% Imazalil sulfate: 6.50 weeks
  Half life for fungicide at 2% active ingredient (ai): 6.17 weeks

## CC(C1CC1)C(O)(Cn1cncn1)c1ccc(Cl)cc1 (stereo not drawn) [Cyproconazole, α-(4-chlorophenyl)-α-(1-cyclopropylethyl)-=1H-1,2,4-triazol-1-ethanol]
Example 7, additive expectation
  estimated expected half life, Low level (0.8%) plus 0.8% Imazalil: {5.42 weeks}
[10]
  half life, High level (1.6%): 4.67 weeks
  half life, Low level (0.8%): 4.17 weeks
  half life, Low level (0.8%) plus 0.8% Imazalil: 6.17 weeks
Example 10, IMS (alcohol)
  half life, Low level with 0.8% Imazalil: 6.17 weeks
[8]
  estimated expected half life, Low level with 0.8% Imazalil: (5.42 weeks)
[9]
  half life, High level (1.6%): 4.67 weeks
  half life, Low level (0.8%): 4.17 weeks

## copper naphthenate [Copper (as copper naphthenate)]
Example 6, additive expectation
  estimated expected half life for 1% fungicide plus 1% Imazalil: {10.50 weeks}
Example 6, solutions in xylene
  Half life for fungicide at 2% ai: 14.83 weeks
Example 6, solutions in xylene, 1% copper
  Half life for 1% fungicide plus 1% Imazalil: 11.67 weeks

## CCCCCCCCCC[N+](C)(C)CCCCCCCCCC.[Cl-] [DDAC, didecyl dimethyl ammonium chloride]
  half life, Low level with 0.8% Imazalil sulfate: 5.50 weeks
  synergy of the combination with imazalil sulfate: evidence of synergy
Example 2
  average time for failure to occur, quat with Imazalil sulfate: 5.50 weeks
  average time for failure to occur, Quat Only: 4.17 weeks
Additive expectation
  estimated expected half life for 1% fungicide plus 1% Imazalil sulfate: 5.50 weeks
  expected half life, Low level with 0.8% Imazalil sulfate: {5.58 weeks}
Solutions in IMS (alcohol)
  Half life for 1% fungicide plus 1% Imazalil sulfate: 6.50 weeks
  Half life for fungicide at 2% active ingredient (ai): 5.00 weeks
Solutions in IMS
  half life, High level (1.6%): 5.33 weeks
  half life, Low level (0.8%): 5.00 weeks

## Poly(hexamethylenebiguanide)hydrochloride [PHMB]
Example 1, 0.3% dichlorophen, 0.1% triclosan, 0.4% fenarimol or 0.4% PHMB, each plus 0.2% imazalil sulfate
  average time for failure to occur (half life), combination with imazalil sulfate: 5.17 weeks
Example 1, additive expectation, midway between the two single biocides
  estimated expected average time for failure, combination with imazalil sulfate: (5.00) weeks
Example 1
  average time for failure to occur (half life): 4.83 weeks
  synergy of the combination with imazalil sulfate: positive synergy

## 1H-imidazole,1-(2-(2,4-dichlorophenyl)-2-(2-propenyloxy)ethyl)-, sulfate [Imazalil sulfate]
Example 1
  average time for failure to occur (half life): 5.17 weeks
Example 2, 0.60% imazalil sulfate alone (Table 3; text b187 says 0.4%)
  average time for failure to occur, No Quat: 5.67 weeks
Solutions in IMS (alcohol)
  Half life for fungicide at 2% active ingredient (ai): 6.00 weeks
Example 4, Table 8 title: solutions in acetone (Table 7: deionised water)
  Half life for fungicide at 2% ai: 7.17 weeks
[11]
  half life, No addition: 5.50 weeks
Example 12, Fluid 1, 0.25% imazalil sulfate in deionized water
  Calculated half life: 5.00 weeks
Example 12, Fluid 2, 0.50% imazalil sulfate in deionized water
  Calculated half life: 6.50 weeks
Example 12, Fluid 3, 1.00% imazalil sulfate in deionized water
  Calculated half life: 6.83 weeks
Example 12, Fluid 4, 1.50% imazalil sulfate in deionized water
  Calculated half life: 8.17 weeks
[1]
  half life, No addition: 5.2 weeks
[2]
  half life, No addition: 7.83 weeks
[3]
  Calculated half life: 7.00 weeks
[4]
  Calculated half life: 8.00 weeks
Solutions in IMS
  half life, High level (1.6%): 5.83 weeks
  half life, Low level (0.8%): 5.00 weeks
[12]
  half life, High level (1.6%): 7.00 weeks
  half life, Low level (0.8%): 5.67 weeks

## CC(Cc1ccc(C(C)(C)C)cc1)CN1C[C@@H](C)O[C@@H](C)C1 (mixture of isomers) [Fenpropimorph, (±)-cis-4-[3-(4-tert-butylphenyl)-2-methylpropyl]-2,6-dimethyl=morpholine]
Additive expectation
  estimated expected half life for 1% fungicide plus 1% Imazalil sulfate: 5.34 weeks
Solutions in IMS (alcohol)
  Half life for 1% fungicide plus 1% Imazalil sulfate: 5.67 weeks
  Half life for fungicide at 2% active ingredient (ai): 4.67 weeks
Example 10, IMS (alcohol)
  half life, Low level with 0.8% Imazalil: 5.83 weeks
[8]
  estimated expected half life, Low level with 0.8% Imazalil: (5.17 weeks)
[9]
  half life, High level (1.6%): 4.17 weeks
  half life, Low level (0.8%): 3.67 weeks

## CCCCCCCCCCCCCN1CC(C)OC(C)C1 (centres unmarked) [Tridemorph, 4-alkyl-2,6-dimethylmorpholine]
Additive expectation
  estimated expected half life for 1% fungicide plus 1% Imazalil sulfate: 5.42 weeks
Solutions in IMS (alcohol)
  Half life for 1% fungicide plus 1% Imazalil sulfate: 6.33 weeks
  Half life for fungicide at 2% active ingredient (ai): 4.83 weeks

## CCCCn1sc2ccccc2c1=O [BBIT, N-butyl-1,2-benzisothiazolin-3-one]
Example 9, 0.7% BBIT plus 0.2% imazalil sulfate
  half life, With Imazalil sulfate: 7.33 weeks
[11]
  half life, No addition: 8.33 weeks
Example 9, additive expectation
  estimated expected half life, With Imazalil sulfate: {6.92 weeks}
